The target of one data set is Nav 1.5 (Homo sapiens (Human), UniProt Q14524). Put plainly: Inhibition of sodium channels, Red Membrane Potential Dye FLIPR assay, veratridine depolarization. The data set is classed as cell-based. The conditions noted are these: HEK-293 cells overexpressing the channel.
In a further data set the target is Nav 1.7 (Homo sapiens (Human), UniProt Q15858). The description is as above. The data set is classed as cell-based. The conditions noted are these: HEK-293 cells overexpressing the channel; for IC50: read-out: Nav1.7 IC50.
The mark [1] stands for this setting: read-out: Nav1.5 IC50 (bound given in μM).

Read-outs that look alike come from different tables or passages of the source.

The term IC50 denotes the concentration needed to halve the response being measured. The inhibition is the drop in the measured response relative to a control, in per cent. A high value points to a response far below the control.

Chain of Nav 1.7 (Q15858 whole entry): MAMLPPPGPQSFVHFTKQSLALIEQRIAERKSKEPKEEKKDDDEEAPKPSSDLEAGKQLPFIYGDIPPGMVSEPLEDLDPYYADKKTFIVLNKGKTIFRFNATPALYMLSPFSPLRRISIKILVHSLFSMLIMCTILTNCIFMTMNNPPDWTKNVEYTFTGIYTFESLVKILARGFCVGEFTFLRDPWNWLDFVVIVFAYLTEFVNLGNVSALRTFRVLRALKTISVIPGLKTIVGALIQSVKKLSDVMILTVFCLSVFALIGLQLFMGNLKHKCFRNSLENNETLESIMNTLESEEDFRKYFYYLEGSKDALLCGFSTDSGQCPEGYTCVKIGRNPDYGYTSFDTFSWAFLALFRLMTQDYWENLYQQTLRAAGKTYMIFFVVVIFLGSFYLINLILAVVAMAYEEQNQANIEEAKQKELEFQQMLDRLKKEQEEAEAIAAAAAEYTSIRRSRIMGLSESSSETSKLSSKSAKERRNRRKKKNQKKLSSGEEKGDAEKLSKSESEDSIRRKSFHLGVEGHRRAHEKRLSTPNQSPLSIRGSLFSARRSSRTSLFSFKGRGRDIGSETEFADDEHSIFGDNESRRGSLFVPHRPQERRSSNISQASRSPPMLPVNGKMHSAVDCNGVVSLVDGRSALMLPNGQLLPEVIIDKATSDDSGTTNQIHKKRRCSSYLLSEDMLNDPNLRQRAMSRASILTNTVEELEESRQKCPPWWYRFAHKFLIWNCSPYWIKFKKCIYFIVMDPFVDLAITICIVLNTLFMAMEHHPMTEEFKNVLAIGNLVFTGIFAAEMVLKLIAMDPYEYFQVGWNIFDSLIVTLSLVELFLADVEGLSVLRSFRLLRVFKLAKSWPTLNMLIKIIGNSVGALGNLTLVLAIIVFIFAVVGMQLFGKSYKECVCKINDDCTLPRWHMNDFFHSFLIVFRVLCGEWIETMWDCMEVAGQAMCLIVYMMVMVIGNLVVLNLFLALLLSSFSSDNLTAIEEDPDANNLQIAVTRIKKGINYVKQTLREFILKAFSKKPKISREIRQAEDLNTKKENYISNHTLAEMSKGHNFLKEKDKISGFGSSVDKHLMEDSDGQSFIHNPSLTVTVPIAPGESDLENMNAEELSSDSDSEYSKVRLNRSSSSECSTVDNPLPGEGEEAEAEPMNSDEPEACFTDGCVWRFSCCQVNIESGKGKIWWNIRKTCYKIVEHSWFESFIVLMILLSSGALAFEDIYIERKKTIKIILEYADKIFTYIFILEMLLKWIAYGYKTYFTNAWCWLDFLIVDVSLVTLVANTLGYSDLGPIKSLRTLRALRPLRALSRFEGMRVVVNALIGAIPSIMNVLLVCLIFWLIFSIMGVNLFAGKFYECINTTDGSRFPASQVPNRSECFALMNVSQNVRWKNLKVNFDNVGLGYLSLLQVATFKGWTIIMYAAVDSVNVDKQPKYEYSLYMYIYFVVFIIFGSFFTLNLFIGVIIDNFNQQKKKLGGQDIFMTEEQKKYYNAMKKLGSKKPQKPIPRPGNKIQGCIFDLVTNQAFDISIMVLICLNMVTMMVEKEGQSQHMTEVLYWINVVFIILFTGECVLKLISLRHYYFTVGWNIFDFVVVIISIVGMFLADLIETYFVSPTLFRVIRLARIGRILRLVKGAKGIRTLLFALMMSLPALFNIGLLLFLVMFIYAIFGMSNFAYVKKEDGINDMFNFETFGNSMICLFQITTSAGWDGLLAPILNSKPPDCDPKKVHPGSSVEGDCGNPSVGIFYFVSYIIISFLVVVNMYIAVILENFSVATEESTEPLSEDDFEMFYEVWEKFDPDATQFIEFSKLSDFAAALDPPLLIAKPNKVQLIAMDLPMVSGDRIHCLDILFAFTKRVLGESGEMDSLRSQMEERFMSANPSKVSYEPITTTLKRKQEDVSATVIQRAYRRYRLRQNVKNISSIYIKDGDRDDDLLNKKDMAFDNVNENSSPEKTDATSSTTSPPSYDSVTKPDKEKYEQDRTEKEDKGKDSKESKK
Chain of Nav 1.5 (Q14524 whole entry): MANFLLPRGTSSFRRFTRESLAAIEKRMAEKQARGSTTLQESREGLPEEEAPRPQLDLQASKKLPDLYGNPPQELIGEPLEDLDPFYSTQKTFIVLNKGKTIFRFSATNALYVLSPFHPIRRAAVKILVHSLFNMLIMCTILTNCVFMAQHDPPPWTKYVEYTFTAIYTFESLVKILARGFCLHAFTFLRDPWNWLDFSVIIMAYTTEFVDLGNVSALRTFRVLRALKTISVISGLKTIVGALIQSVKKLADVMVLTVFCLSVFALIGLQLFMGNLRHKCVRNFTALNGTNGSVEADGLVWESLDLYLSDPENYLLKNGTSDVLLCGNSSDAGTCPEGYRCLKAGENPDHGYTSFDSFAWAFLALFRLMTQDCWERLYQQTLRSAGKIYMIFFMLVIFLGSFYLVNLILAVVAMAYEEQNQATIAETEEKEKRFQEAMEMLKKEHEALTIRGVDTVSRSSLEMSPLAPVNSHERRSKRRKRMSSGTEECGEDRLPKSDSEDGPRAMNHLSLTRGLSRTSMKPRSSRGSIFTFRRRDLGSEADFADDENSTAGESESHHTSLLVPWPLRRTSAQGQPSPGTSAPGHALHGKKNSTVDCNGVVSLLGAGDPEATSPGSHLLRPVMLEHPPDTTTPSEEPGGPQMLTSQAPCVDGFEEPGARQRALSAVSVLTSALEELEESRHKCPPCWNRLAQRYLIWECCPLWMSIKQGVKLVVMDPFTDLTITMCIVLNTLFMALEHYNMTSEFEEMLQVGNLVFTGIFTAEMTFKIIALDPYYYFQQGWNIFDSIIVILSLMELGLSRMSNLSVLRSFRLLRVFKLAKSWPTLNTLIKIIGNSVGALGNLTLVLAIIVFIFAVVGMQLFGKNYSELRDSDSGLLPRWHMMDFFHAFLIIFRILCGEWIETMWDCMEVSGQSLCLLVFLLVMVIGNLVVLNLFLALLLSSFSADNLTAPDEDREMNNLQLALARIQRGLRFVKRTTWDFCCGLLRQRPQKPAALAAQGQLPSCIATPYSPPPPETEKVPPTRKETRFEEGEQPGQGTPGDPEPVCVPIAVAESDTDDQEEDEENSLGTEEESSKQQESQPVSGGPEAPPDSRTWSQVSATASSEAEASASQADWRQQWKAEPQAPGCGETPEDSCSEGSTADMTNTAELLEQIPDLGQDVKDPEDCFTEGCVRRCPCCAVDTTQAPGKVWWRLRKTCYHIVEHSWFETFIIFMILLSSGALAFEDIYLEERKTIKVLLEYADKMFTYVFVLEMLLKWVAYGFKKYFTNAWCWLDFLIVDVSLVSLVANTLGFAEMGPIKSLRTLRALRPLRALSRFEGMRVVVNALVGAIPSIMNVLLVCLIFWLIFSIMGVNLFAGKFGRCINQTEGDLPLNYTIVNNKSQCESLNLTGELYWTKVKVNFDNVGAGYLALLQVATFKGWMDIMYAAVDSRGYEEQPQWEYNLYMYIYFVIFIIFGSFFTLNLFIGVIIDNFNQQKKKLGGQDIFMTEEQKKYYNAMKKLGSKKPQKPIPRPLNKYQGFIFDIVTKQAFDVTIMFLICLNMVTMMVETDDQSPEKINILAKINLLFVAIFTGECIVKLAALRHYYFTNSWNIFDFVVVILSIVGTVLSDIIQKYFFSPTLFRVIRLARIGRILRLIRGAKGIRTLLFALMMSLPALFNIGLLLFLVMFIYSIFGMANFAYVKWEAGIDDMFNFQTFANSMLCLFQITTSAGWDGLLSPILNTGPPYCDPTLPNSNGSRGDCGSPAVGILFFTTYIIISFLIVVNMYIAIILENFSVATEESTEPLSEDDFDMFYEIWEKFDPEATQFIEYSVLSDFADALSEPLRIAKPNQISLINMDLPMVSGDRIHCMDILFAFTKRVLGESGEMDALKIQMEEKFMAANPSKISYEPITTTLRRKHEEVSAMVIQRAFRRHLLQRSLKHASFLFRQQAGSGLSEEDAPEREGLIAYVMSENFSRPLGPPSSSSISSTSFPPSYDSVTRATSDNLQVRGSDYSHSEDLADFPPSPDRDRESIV

On to `COCCCCc1cc(C(F)(F)F)ccc1[C@H]1CCOc2cc(S(=O)(=O)Nc3ncccn3)ccc21` [Example 147, (S&R)-4-(2-(4-methoxybutyl)-4-(trifluoromethyl)phenyl)-N-(pyrimidin-2-yl)chroman-7-sulfonamide], for which the “Nav1.5 % inhibition @ 10 μM” value on Nav 1.5 (10 μM) turned out to be 60%. In addition, on Nav 1.7, the IC50 is 199 nM.
Turning to `COCCCCc1cc(C(F)(F)F)ccc1[C@@H]1CCOc2cc(S(=O)(=O)Nc3cccc(F)n3)ccc21` [Example 151, (S&R)—N-(6-fluoropyridin-2-yl)-4-(2-(4-methoxybutyl)-4-(trifluoromethyl)phenyl)chroman-7-sulfonamide], the “Nav1.5 % inhibition @ 10 μM” value at Nav 1.5 (10 μM) worked out at 57%. Moreover, the IC50 at Nav 1.7 came to 390 nM.
Take `O=S(=O)(Nc1ccncn1)c1ccc2c(c1)OCC[C@@H]2c1ccc(C(F)(F)F)cc1CCCF` (racemic) [Example 160, (R/S)-4-(2-(3-fluoropropyl)-4-(trifluoromethyl)phenyl)-N-(pyrimidin-4-yl)chroman-7-sulfonamide]: at 10 µM the inhibition against Nav 1.5 (HEK-293 cells overexpressing Nav 1.5, 10 μM) was 61%. For the same compound, at Nav 1.7, the IC50 came to 0.7 nM.
For the compound `Cc1nc(-c2cc(C(F)(F)F)ccc2[C@H]2CCOc3cc(S(=O)(=O)Nc4ncccn4)ccc32)cs1` [Example 64, (S&R)-4-(2-(2-Methylthiazol-4-yl)-4-(trifluoromethyl)phenyl)-N-(pyrimidin-2-yl)chroman-7-sulfonamide], the figures for the IC50 at Nav 1.5 (setting [1]) and on Nav 1.7 were above 10 µM and 3 nM, respectively.
Consider `COc1cc(C(F)(F)F)ccc1[C@@H]1CCOc2cc(S(=O)(=O)Nc3ncccn3)ccc21` [Example-226, (S&R)-4-(2-methoxy-4-(trifluoromethyl)phenyl)-N-(pyrimidin-2-yl)chroman-7-sulfonamide], for which the “Nav1.5 % inhibition @ 10 μM” value at Nav 1.5 (10 μM) is reported as 86%. Moreover, the IC50 at Nav 1.7 worked out at 2350 nM.
Take `CS(=O)(=O)CCc1cc(C(F)(F)F)ccc1[C@@H]1CCOc2cc(S(=O)(=O)Nc3ncccn3)ccc21` [Example 83, (S&R)-4-(2-(2-(Methylsulfonyl)ethyl)-4-(trifluoromethyl)phenyl)-N-(pyrimidin-2-yl)chroman-7-sulfonamide]: on Nav 1.5 (setting [1]), the IC50 was above 10 µM. In addition, the “Nav1.7 inhibition @ 10 μM” value on Nav 1.7 was determined as 71%.
Consider `O=S(=O)(Nc1cccc(F)n1)c1ccc2c(c1)OCC[C@@H]2c1ccc(C(F)(F)F)cc1OC1CCOCC1` [Example-177, (R&S)—N-(6-fluoropyridin-2-yl)-4-(2-((tetrahydro-2H-pyran-4-yl)oxy)-4-(trifluoromethyl)phenyl)chroman-7-sulfonamide], for which the half-inhibitory concentration (IC50) at Nav 1.5 (read-out: Nav1.5 IC50) turned out to be 0.232 µM; on Nav 1.7, 11 nM.
In the case of `O=S(=O)(Nc1ncccn1)c1ccc2c(c1)OCCC2c1ccc(C(F)(F)F)cc1O[C@H]1CCOC1` (stereo partly drawn) [Example-178, (R&S)—N-(pyrimidin-2-yl)-4-(2-(((S)-tetrahydrofuran-3-yl)oxy)-4-(trifluoromethyl)phenyl)chroman-7-sulfonamide], the IC50 at Nav 1.5 (setting [1]) was above 10 µM; on Nav 1.7, 149 nM.
Taken in the same sequence, the figures for `COCCCCc1cc(C(F)(F)F)ccc1[C@H]1CCOc2cc(S(=O)(=O)Nc3ncc(F)cn3)ccc21` (racemic) [Example 148, (R/S)—N-(5-fluoropyrimidin-2-yl)-4-(2-(4-methoxybutyl)-4-(trifluoromethyl)phenyl)chroman-7-sulfonamide] were above 10 µM and 172 nM.
As to `O=C(O)c1ccc(-c2cc(C(F)(F)F)ccc2[C@H]2CCOc3cc(S(=O)(=O)Nc4ncccn4)ccc32)cc1` [Example-188, (S&R)-2′-(7-(N-(pyrimidin-2-yl)sulfamoyl)chroman-4-yl)-5′-(trifluoromethyl)-[1,1′-biphenyl]-4-carboxylic acid], the IC50 is above 10 µM at Nav 1.5 (setting [1]) and 67 nM on Nav 1.7.
In the case of `Cn1nccc1-c1cc(C(F)(F)F)ccc1[C@@H]1CCOc2cc(S(=O)(=O)Nc3cccnc3F)ccc21` [Example 27, (S&R)—N-(2-fluoropyridin-3-yl)-4-(2-(1-methyl-1H-pyrazol-5-yl)-4-(trifluoromethyl)phenyl)chroman-7-sulfonamide], at Nav 1.5 (setting [1]), the IC50 is above 10 µM. Also, the “Nav1.7 inhibition @ 10 μM” value at Nav 1.7 was found to be 80%.
As for `CCCc1cc(C(F)(F)F)ccc1C1CCOc2cc(S(=O)(=O)Nc3cccnn3)ccc21` (centres unmarked) [Example-242], the IC50 at Nav 1.5 (read-out: Nav1.5 IC50) came out at 3.65 µM; on Nav 1.7, 1060 nM.
Consider `COCCOc1cc(C(F)(F)F)ccc1[C@H]1CCOc2cc(S(=O)(=O)Nc3ncc(F)cn3)ccc21` (racemic) [Example 126, (R/S)—N-(5-fluoropyrimidin-2-yl)-4-(2-(2-methoxyethoxy)-4-(trifluoromethyl)phenyl)chroman-7-sulfonamide], for which the concentration for half-maximal inhibition (IC50) on Nav 1.5 (setting [1]) is above 10 µM; at Nav 1.7, 140 nM.
On to `O=S(=O)(Nc1ncc(F)cn1)c1ccc2c(c1)OCC[C@@H]2c1ccc(C(F)(F)F)cc1OC1COC1` (racemic) [Example-218, (S/R)—N-(5-fluoropyrimidin-2-yl)-4-(2-(oxetan-3-yloxy)-4-(trifluoromethyl)phenyl)chroman-7-sulfonamide], for which the IC50 at Nav 1.5 (setting [1]) was above 10 µM; on Nav 1.7, 43 nM.
On to `CS(=O)(=O)CCc1cc(C(F)(F)F)ccc1[C@@H]1CCOc2cc(S(=O)(=O)Nc3cccc(F)n3)ccc21` [Example 81, (S&R)—N-(6-Fluoropyridin-2-yl)-4-(2-(2-(methylsulfonyl)ethyl)-4-(trifluoromethyl)phenyl)chroman-7-sulfonamide], for which the “Nav1.5 % inhibition @ 10 μM” value on Nav 1.5 (10 μM) is given as 34%. Besides, the IC50 on Nav 1.7 amounted to 993 nM.
`O=C1CCCN1c1cc(C(F)(F)F)ccc1[C@H]1CCOc2cc(S(=O)(=O)Nc3ncccn3)ccc21` (racemic) [Example 115, (R/S)-4-(2-(2-oxopyrrolidin-1-yl)-4-(trifluoromethyl)phenyl)-N-(pyrimidin-2-yl)chroman-7-sulfonamide]: the IC50 is above 10 µM on Nav 1.5 (setting [1]) and 41 nM on Nav 1.7.
Consider `Cn1nccc1-c1cc(Cl)ccc1[C@H]1CCOc2cc(S(=O)(=O)Nc3cccc(F)n3)ccc21` [Example 32, (S&R)-4-(4-chloro-2-(1-methyl-1H-pyrazol-5-yl)phenyl)-N-(6-fluoropyridin-2-yl)chroman-7-sulfonamide], for which the half-maximal inhibitory concentration (IC50) is above 10 µM at Nav 1.5 (setting [1]) and 151 nM on Nav 1.7.
In the case of `CCCc1cc(C(F)(F)F)ccc1[C@H]1CCOc2cc(S(=O)(=O)Nc3ncc(F)cn3)ccc21` [Example-241, (S&R)—N-(5-fluoropyrimidin-2-yl)-4-(2-propyl-4-(trifluoromethyl)phenyl)chroman-7-sulfonamide], the figures for the IC50 at Nav 1.5 (setting [1]) and at Nav 1.7 were above 10 µM and 172 nM, respectively.
`O=S(=O)(Nc1ncccn1)c1ccc2c(c1)OCCC2c1ccc(C(F)(F)F)cc1O[C@@H]1CCOC1` (stereo partly drawn) [Example-185, (S&R)—N-(pyrimidin-2-yl)-4-(2-(((R)-tetrahydrofuran-3-yl)oxy)-4-(trifluoromethyl)phenyl)chroman-7-sulfonamide]: the IC50 is above 10 µM on Nav 1.5 (setting [1]) and 1020 nM on Nav 1.7.

The values are drawn from patent publication US10239869B2, “Sulfonamide compounds as voltage-gated sodium channel modulators” (LUPIN LIMITED, priority 2015, dated 2019).
